Results from PubChem BioAssay (NCI).
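These data come from cells grown in 96-well plates and exposed to compound for 48 hours at five concentrations. TGI: concentration producing complete growth inhibition.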

Tests used:
Test in all cases: NCI anticancer screen, dose series, 48 h
SF-539 CNS = tested on: SF-539 CNS
HOP-62 NSCLC = tested on: HOP-62 NSCLC
HCC-2998 colon = tested on: HCC-2998 colon
A498 renal = tested on: A498 renal
OVCAR-4 ovarian = tested on: OVCAR-4 ovarian
SK-OV-3 ovarian = tested on: SK-OV-3 ovarian
HOP-92 NSCLC = tested on: HOP-92 NSCLC
SNB-75 CNS = tested on: SNB-75 CNS
KM12 colon = tested on: KM12 colon
MOLT-4 leukemia = tested on: MOLT-4 leukemia
UO-31 renal = tested on: UO-31 renal
OVCAR-5 ovarian = tested on: OVCAR-5 ovarian
CCRF-CEM leukemia = tested on: CCRF-CEM leukemia
K-562 leukemia = tested on: K-562 leukemia
COLO 205 colon = tested on: COLO 205 colon
HL-60(TB) leukemia = tested on: HL-60(TB) leukemia
MDA-MB-435 = tested on: MDA-MB-435
SN12C renal = tested on: SN12C renal
NCI-H23 lung = tested on: NCI-H23 lung
MDA-MB-231 breast = tested on: MDA-MB-231 breast
HCT-116 colon = tested on: HCT-116 colon
TK-10 renal = tested on: TK-10 renal
T-47D breast = tested on: T-47D breast
SK-MEL-5 melanoma = tested on: SK-MEL-5 melanoma
M14 melanoma = tested on: M14 melanoma
MCF7 breast = tested on: MCF7 breast
SW-620 colon = tested on: SW-620 colon
SK-MEL-28 melanoma = tested on: SK-MEL-28 melanoma
SF-268 CNS = tested on: SF-268 CNS
NCI/ADR-RES ovarian = tested on: NCI/ADR-RES ovarian
RXF 393 renal = tested on: RXF 393 renal
IGROV1 ovarian = tested on: IGROV1 ovarian
786-0 renal = tested on: 786-0 renal
SNB-19 CNS = tested on: SNB-19 CNS
CAKI-1 renal = tested on: CAKI-1 renal
DU-145 prostate = tested on: DU-145 prostate
U251 CNS = tested on: U251 CNS
OVCAR-3 ovarian = tested on: OVCAR-3 ovarian
HT29 colon = tested on: HT29 colon
HCT-15 colon = tested on: HCT-15 colon
PC-3 prostate = tested on: PC-3 prostate
NCI-H226 lung = tested on: NCI-H226 lung
SK-MEL-2 melanoma = tested on: SK-MEL-2 melanoma
A549 NSCLC = tested on: A549 NSCLC
SR leukemia = tested on: SR leukemia
HS 578T breast = tested on: HS 578T breast
MALME-3M melanoma = tested on: MALME-3M melanoma
MDA-N = tested on: MDA-N
UACC-62 melanoma = tested on: UACC-62 melanoma
EKVX NSCLC = tested on: EKVX NSCLC
NCI-H522 lung = tested on: NCI-H522 lung
LOX IMVI melanoma = tested on: LOX IMVI melanoma
SF-295 CNS = tested on: SF-295 CNS
NCI-H460 lung = tested on: NCI-H460 lung
UACC-257 melanoma = tested on: UACC-257 melanoma
ACHN renal = tested on: ACHN renal
OVCAR-8 ovarian = tested on: OVCAR-8 ovarian
BT-549 breast = tested on: BT-549 breast
RPMI-8226 leukemia = tested on: RPMI-8226 leukemia

CC1=C[C@@H]2[C@@H](CC(CO)=C[C@H]3[C@@H]4C(C)(C)[C@]4(OCC(C)C)[C@H](OCC(C)C)[C@@H](C)[C@]23O)C1=O
TGI (SF-539 CNS): 2.87 µM
TGI (HOP-62 NSCLC): 2.8 µM
TGI (HCC-2998 colon): 1.78 µM
TGI (A498 renal): > 4.44 µM
TGI (OVCAR-4 ovarian): > 8.32 µM
TGI (SK-OV-3 ovarian): > 8.32 µM
TGI (HOP-92 NSCLC): > 5.57 µM
TGI (SNB-75 CNS): > 8.32 µM
TGI (KM12 colon): > 5.69 µM
TGI (MOLT-4 leukemia): 2.96 µM
TGI (UO-31 renal): > 6.8 µM
TGI (OVCAR-5 ovarian): 8.23 µM
TGI (CCRF-CEM leukemia): 8.12 µM
TGI (K-562 leukemia): > 4.86 µM
TGI (COLO 205 colon): 1.4 µM
TGI (HL-60(TB) leukemia): > 5.52 µM
TGI (MDA-MB-435): > 6.31 µM
TGI (SN12C renal): 4.22 µM
TGI (NCI-H23 lung): 5.81 µM
TGI (MDA-MB-231 breast): 3.39 µM
TGI (HCT-116 colon): > 4.72 µM
TGI (TK-10 renal): > 5.97 µM
TGI (T-47D breast): > 8.32 µM
TGI (SK-MEL-5 melanoma): > 4.37 µM
TGI (M14 melanoma): > 5.15 µM
TGI (MCF7 breast): 6.89 µM
TGI (SW-620 colon): 4.68 µM
TGI (SK-MEL-28 melanoma): 3.38 µM
TGI (SF-268 CNS): > 8.32 µM
TGI (NCI/ADR-RES ovarian): 8.31 µM
TGI (RXF 393 renal): 3.69 µM
TGI (IGROV1 ovarian): 4.8 µM
TGI (786-0 renal): > 6.54 µM
TGI (SNB-19 CNS): > 8.32 µM
TGI (CAKI-1 renal): 3.69 µM
TGI (DU-145 prostate): > 8.32 µM
TGI (U251 CNS): 4.15 µM
TGI (OVCAR-3 ovarian): 5.46 µM
TGI (HT29 colon): 2.87 µM
TGI (HCT-15 colon): 2.77 µM
TGI (PC-3 prostate): > 4.51 µM
TGI (NCI-H226 lung): > 4.53 µM
TGI (SK-MEL-2 melanoma): > 6.43 µM
TGI (A549 NSCLC): > 8.32 µM
TGI (SR leukemia): 3.32 µM
TGI (HS 578T breast): 2.71 µM
TGI (MALME-3M melanoma): 2.36 µM
TGI (MDA-N): 3.49 µM
TGI (UACC-62 melanoma): 3.2 µM
TGI (EKVX NSCLC): > 5.64 µM
TGI (NCI-H522 lung): 4.58 µM
TGI (LOX IMVI melanoma): 3.06 µM
TGI (SF-295 CNS): > 8.32 µM
TGI (NCI-H460 lung): > 8.32 µM
TGI (UACC-257 melanoma): 3.72 µM
TGI (ACHN renal): 3.4 µM
TGI (OVCAR-8 ovarian): > 6.08 µM
TGI (BT-549 breast): 2.65 µM

O=C(c1cccs1)N(Cc1cccnc1)C(=S)N(Cc1cccnc1)C(=O)c1cccs1
TGI (SF-539 CNS): 88.7 µM
TGI (HOP-62 NSCLC): > 100 µM
TGI (HCC-2998 colon): > 100 µM
TGI (A498 renal): 97.4 µM
TGI (OVCAR-4 ovarian): > 100 µM
TGI (SK-OV-3 ovarian): > 100 µM
TGI (HOP-92 NSCLC): > 100 µM
TGI (SNB-75 CNS): > 100 µM
TGI (KM12 colon): > 100 µM
TGI (MOLT-4 leukemia): > 100 µM
TGI (UO-31 renal): > 100 µM
TGI (OVCAR-5 ovarian): > 100 µM
TGI (CCRF-CEM leukemia): > 100 µM
TGI (K-562 leukemia): > 100 µM
TGI (COLO 205 colon): > 100 µM
TGI (HL-60(TB) leukemia): > 100 µM
TGI (MDA-MB-435): > 100 µM
TGI (SN12C renal): > 100 µM
TGI (NCI-H23 lung): > 100 µM
TGI (MDA-MB-231 breast): > 100 µM
TGI (HCT-116 colon): > 100 µM
TGI (TK-10 renal): > 100 µM
TGI (T-47D breast): > 100 µM
TGI (SK-MEL-5 melanoma): > 100 µM
TGI (M14 melanoma): > 100 µM
TGI (MCF7 breast): > 100 µM
TGI (SW-620 colon): > 100 µM
TGI (SK-MEL-28 melanoma): > 100 µM
TGI (SF-268 CNS): > 100 µM
TGI (NCI/ADR-RES ovarian): > 100 µM
TGI (RXF 393 renal): > 100 µM
TGI (786-0 renal): 34.3 µM
TGI (SNB-19 CNS): > 100 µM
TGI (CAKI-1 renal): > 100 µM
TGI (DU-145 prostate): > 100 µM
TGI (U251 CNS): > 100 µM
TGI (OVCAR-3 ovarian): > 100 µM
TGI (HT29 colon): > 100 µM
TGI (HCT-15 colon): > 100 µM
TGI (PC-3 prostate): > 100 µM
TGI (NCI-H226 lung): > 100 µM
TGI (SK-MEL-2 melanoma): > 100 µM
TGI (A549 NSCLC): > 100 µM
TGI (SR leukemia): > 100 µM
TGI (HS 578T breast): > 100 µM
TGI (MALME-3M melanoma): > 100 µM
TGI (MDA-N): > 100 µM
TGI (UACC-62 melanoma): > 100 µM
TGI (EKVX NSCLC): > 100 µM
TGI (NCI-H522 lung): > 100 µM
TGI (LOX IMVI melanoma): > 100 µM
TGI (SF-295 CNS): > 100 µM
TGI (NCI-H460 lung): > 100 µM
TGI (UACC-257 melanoma): > 100 µM
TGI (ACHN renal): > 100 µM
TGI (OVCAR-8 ovarian): > 100 µM
TGI (BT-549 breast): > 100 µM

O=S(=O)(O)C(Cc1nc2ccccc2[nH]1)S(=O)(=O)OCCC1S(=O)(=O)OCCOS1(=O)=O (stereo not drawn)
TGI (SF-539 CNS): > 100 µM
TGI (HOP-62 NSCLC): > 100 µM
TGI (HCC-2998 colon): > 100 µM
TGI (A498 renal): > 100 µM
TGI (OVCAR-4 ovarian): > 100 µM
TGI (SK-OV-3 ovarian): > 100 µM
TGI (HOP-92 NSCLC): > 100 µM
TGI (SNB-75 CNS): > 100 µM
TGI (KM12 colon): > 100 µM
TGI (MOLT-4 leukemia): > 100 µM
TGI (UO-31 renal): > 100 µM
TGI (OVCAR-5 ovarian): > 100 µM
TGI (CCRF-CEM leukemia): > 100 µM
TGI (K-562 leukemia): > 100 µM
TGI (COLO 205 colon): > 100 µM
TGI (HL-60(TB) leukemia): > 100 µM
TGI (MDA-MB-435): > 100 µM
TGI (SN12C renal): > 100 µM
TGI (NCI-H23 lung): > 100 µM
TGI (MDA-MB-231 breast): > 100 µM
TGI (HCT-116 colon): > 100 µM
TGI (TK-10 renal): > 100 µM
TGI (T-47D breast): > 100 µM
TGI (SK-MEL-5 melanoma): > 100 µM
TGI (M14 melanoma): > 100 µM
TGI (MCF7 breast): > 100 µM
TGI (SW-620 colon): > 100 µM
TGI (SK-MEL-28 melanoma): > 100 µM
TGI (SF-268 CNS): > 100 µM
TGI (NCI/ADR-RES ovarian): > 100 µM
TGI (RXF 393 renal): > 100 µM
TGI (IGROV1 ovarian): > 100 µM
TGI (786-0 renal): > 100 µM
TGI (SNB-19 CNS): > 100 µM
TGI (CAKI-1 renal): > 100 µM
TGI (DU-145 prostate): > 100 µM
TGI (U251 CNS): > 100 µM
TGI (OVCAR-3 ovarian): > 100 µM
TGI (HT29 colon): > 100 µM
TGI (HCT-15 colon): > 100 µM
TGI (PC-3 prostate): > 100 µM
TGI (NCI-H226 lung): > 100 µM
TGI (SK-MEL-2 melanoma): > 100 µM
TGI (A549 NSCLC): > 100 µM
TGI (HS 578T breast): > 100 µM
TGI (MALME-3M melanoma): > 100 µM
TGI (MDA-N): > 100 µM
TGI (UACC-62 melanoma): > 100 µM
TGI (EKVX NSCLC): > 100 µM
TGI (NCI-H522 lung): > 100 µM
TGI (RPMI-8226 leukemia): > 100 µM
TGI (LOX IMVI melanoma): > 100 µM
TGI (SF-295 CNS): > 100 µM
TGI (NCI-H460 lung): > 100 µM
TGI (UACC-257 melanoma): > 100 µM
TGI (ACHN renal): > 100 µM
TGI (OVCAR-8 ovarian): > 100 µM
TGI (BT-549 breast): > 100 µM
